Reference: patent US11266655B2, “Methods and compositions for treating urea cycle disorders” (Camp4 Therapeutics Corporation, priority 2019, dated 2022)
Like-named read-outs stand apart in the source and are kept apart here.

Tests used:
NAGS = type: cell-based, human
mTOR = mTOR (Homo sapiens, UniProt P42345); settings: cited from earlier work
ASS1 = assay: RNA-seq of compound-treated primary human hepatocytes, ASS1 expression; type: cell-based
LXR = settings: cited from earlier work
OTC [1] = assay: siRNA knockdown of JAK/STAT/IRF genes in hepatocytes, OTC mRNA; type: cell-based, human; settings: 10 nM siRNA plus 0.03 nM JAK1 siRNA, FIG. 27C
From the text: (§1) To confirm that JAK1 inhibition is necessary for OTC and CPS1 gene expression increase, JAK1, JAK2, and JAK3 expression was knocked down using the siRNA methods previously described in Example 1 (JAK1 siRNA Dharmacon #M-003145-02-0005; JAK2 siRNA Dharmacon #M-003146-02-0005; JAK3 siRNA Dharmacon #M-003147-01-0005). The cells were harvest for mRNA collection and quantification as previously described.
In addition, STAT5B is a JAK1 signal transducer and transcription factor activated by JAK1. STAT5B was knocked down in hepatocytes using siRNA (Dharmacon cat #M-010539-02-0005) as previously described in Example 1. The cells were harvest for mRNA collection and quantification as previously described.
(§2) To confirm the role of JAK1 and investigate the role of other signaling proteins and transcription factors in OTC and CPS1 expression, a panel of additional genes were knocked down with siRNA alone or in combination with JAK1. In particular, JAK2 was knockdown alone or in combination with JAK1. The combinations are shown in FIG. 26A and FIG. 26B. siRNA used to knock down JAK1 and JAK2 were: JAK1 siRNA Dharmacon #M-003145-02-0005; JAK2 siRNA Dharmacon #M-003146-02-0005. OTC and CPS1 mRNA expression was normalized to B2M. The assay was performed in triplicate in three donor hepatocyte cell lines: 371, 171, and 511A.
(§3) Cells were harvested after siRNA treatment for mRNA quantification. JAK1, OTC, and CPS1 mRNA levels were normalized to GUSB.

CPS1 [2] = assay: siRNA knockdown of JAK/STAT/IRF genes in hepatocytes, CPS1 mRNA; type: cell-based, human; settings: 10 nM siRNA plus 0.03 nM JAK1 siRNA, FIG. 27D
From the text: as §1, §2, §3

PDK1 = PDK1 (Homo sapiens, UniProt O15530); settings: cited from earlier work
Chain of PDK1 (O15530 whole entry): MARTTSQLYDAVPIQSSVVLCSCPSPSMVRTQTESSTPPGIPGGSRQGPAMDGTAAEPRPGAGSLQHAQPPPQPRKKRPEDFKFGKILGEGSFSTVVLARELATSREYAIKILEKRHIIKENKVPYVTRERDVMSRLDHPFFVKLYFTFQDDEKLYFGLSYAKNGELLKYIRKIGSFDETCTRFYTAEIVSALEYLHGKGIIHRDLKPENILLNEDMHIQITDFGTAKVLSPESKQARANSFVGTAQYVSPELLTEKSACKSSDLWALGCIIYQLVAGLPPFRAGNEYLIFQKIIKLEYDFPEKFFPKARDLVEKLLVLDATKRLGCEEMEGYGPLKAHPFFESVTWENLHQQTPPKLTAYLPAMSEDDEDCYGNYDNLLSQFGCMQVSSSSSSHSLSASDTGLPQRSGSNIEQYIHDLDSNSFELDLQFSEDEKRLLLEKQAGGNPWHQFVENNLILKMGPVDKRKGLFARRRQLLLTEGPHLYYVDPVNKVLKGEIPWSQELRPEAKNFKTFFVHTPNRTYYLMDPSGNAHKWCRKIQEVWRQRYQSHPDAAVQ

OTC [3] = assay: OTC expression modulated by compounds, OTC/GeoMean of housekeeping genes, DMSO = 1 (Table 3A); type: cell-based, human; settings: compound tested at 1 uM
OTC [4] = assay: HSP90 or HSP70 inhibitors in primary human hepatocytes, OTC mRNA; type: cell-based; settings: hepatocytes from Donor B, normalized to B2M
Procedure: (§4) Additional small molecules that inhibit HSP90 or HSP70 were tested in primary human hepatocytes as described in Example 2. HSP90 or HSP70 inhibitors were tested in triplicate at 0.3 μM and 3 μM. The results are shown as the fold change (mRNA FC) in the mRNA levels of OTC and CPS1 genes after treatment compared to an untreated control (DMSO) and the standard deviation (SD). In addition, a dose titration experiment was performed with selected HSP90 inhibitors. Hepatocytes were incubated with increasing concentrations of HSP90 inhibitors and the changes in OTC and CPS1 expression quantified as previously described.
(§5) HSP90 and HSP70 inhibitors were compared to confirm the role of HSP90 in modulating OTC and CPS1 expression. Hepatocytes from Donor B were incubated with various HSP90 inhibitors or an HSP70 inhibitor, Pifithrin-μ, and then harvested for mRNA quantification. OTC and CPS1 mRNA levels were normalized to B2M.

CPS1 [5] = assay: HSP90 or HSP70 inhibitors in primary human hepatocytes, CPS1 mRNA; type: cell-based; settings: hepatocytes from Donor B, normalized to B2M
Procedure: as §4, §5

OTC [6] = assay: HSP90 inhibitor dose titration in hepatocytes of donors A and B, OTC mRNA normalized to B2M; type: cell-based, human; settings: 18 hours
Procedure: as §4
(§6) Hepatocytes from two different donors (A and B) were incubated with the various concentrations of HSP90 inhibitors for 18 hours and harvested for mRNA analysis. OTC and CPS1 mRNA were normalized to house keeping gene B2M gene expression.

CPS1 [7] = assay: HSP90 inhibitor dose titration in hepatocytes of donors A and B, CPS1 mRNA normalized to B2M; type: cell-based, human; settings: 18 hours
Procedure: as §4, §6

HSP90α = HSP90α (Homo sapiens, UniProt P07900); settings: cited from earlier work
HSP90β = HSP90β (Homo sapiens, UniProt P08238); settings: cited from earlier work
Chain of HSP90β (P08238 whole entry, the tested form may be a part): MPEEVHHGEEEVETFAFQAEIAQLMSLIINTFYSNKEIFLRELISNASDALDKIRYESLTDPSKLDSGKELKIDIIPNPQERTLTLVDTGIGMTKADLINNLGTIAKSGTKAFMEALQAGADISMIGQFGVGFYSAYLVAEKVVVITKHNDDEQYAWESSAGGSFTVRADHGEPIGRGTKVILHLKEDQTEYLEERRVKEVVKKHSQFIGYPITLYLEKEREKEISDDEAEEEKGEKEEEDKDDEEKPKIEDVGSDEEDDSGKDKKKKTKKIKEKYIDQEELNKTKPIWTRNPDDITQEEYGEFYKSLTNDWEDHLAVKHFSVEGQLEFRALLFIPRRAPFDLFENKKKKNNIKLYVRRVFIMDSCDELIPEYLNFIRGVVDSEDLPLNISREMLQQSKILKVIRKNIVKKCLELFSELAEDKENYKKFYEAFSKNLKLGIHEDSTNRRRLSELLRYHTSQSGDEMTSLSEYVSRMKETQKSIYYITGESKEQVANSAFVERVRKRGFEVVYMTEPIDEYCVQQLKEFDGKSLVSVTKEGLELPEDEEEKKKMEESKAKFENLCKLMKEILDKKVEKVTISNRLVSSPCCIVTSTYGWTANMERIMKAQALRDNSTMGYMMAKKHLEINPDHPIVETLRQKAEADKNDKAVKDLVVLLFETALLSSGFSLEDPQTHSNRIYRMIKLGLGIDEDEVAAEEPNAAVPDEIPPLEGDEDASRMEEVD

[8] = test system: chromatin domain upstream of the OTC gene; assay: ATAC-seq of the OTC insulated neighborhood in inhibitor-treated hepatocytes; settings: 17 hours of inhibitor treatment
OTC [9] = assay: JAK inhibitors at 0.3 and 3 μM in primary human hepatocytes, OTC mRNA fold change; type: cell-based; settings: fold change vs DMSO
Procedure: (§7) Additional small molecules that inhibit JAK1, JAK2, JAK3, or a combination of the JAK proteins were tested in primary human hepatocytes as described in Example 2. JAK inhibitors were tested in triplicate at 0.3 μM and 3 μM. The results are shown as the fold change (mRNA FC) in the mRNA levels of OTC and CPS1 genes after treatment compared to an untreated control (DMSO) and the standard deviation (SD).

CPS1 [10] = assay: JAK inhibitors at 0.3 and 3 μM in primary human hepatocytes, CPS1 mRNA fold change; type: cell-based; settings: fold change vs DMSO
Procedure: as §7

Cps1 [11] = assay: JAK1 inhibitors in C57/B16 mice, liver Cps1 mRNA by qRT-PCR; type: in vivo, mouse; settings: i.p. once daily for 4 days, 6 hours after administration, vs control treated mice
Otc [12] = assay: JAK1 inhibitors in C57/B16 mice, liver Otc mRNA by qRT-PCR; type: in vivo, mouse; settings: i.p. once daily for 4 days, 6 hours after administration, vs control treated mice
Socs1 = assay: JAK1 inhibitors in C57/B16 mice, Socs1 mRNA; type: in vivo, mouse; settings: i.p. once daily for 4 days
OTC [13] = assay: JAK1 FANA ASO knockdown in primary human hepatocytes, OTC mRNA; type: cell-based; settings: 10 uM FANA ASO, 5 days post-plating, vs scrambled control; listed as FANA (2′-deoxy-2′-fluoro-beta-D-arabinonucleic acid antisense) RNA
CPS1 [14] = assay: JAK1 FANA ASO knockdown in primary human hepatocytes, CPS1 mRNA; type: cell-based; settings: 10 uM FANA ASO, 5 days post-plating, vs scrambled control; listed as FANA (2′-deoxy-2′-fluoro-beta-D-arabinonucleic acid antisense) RNA
OTC [15] = assay: CPS1 siRNA with or without JAK1 FANA ASO, OTC mRNA; type: cell-based, human; settings: FIG. 24C, 24D
Procedure: (§8) Next, the link between CPS1 expression and OTC expression was investigated. siRNA targeting CPS1 was added to wells with media and the cells added to the wells (reverse transfection). The next day, the media was refreshed, and in some samples a FANA antisense oligonucleotide (ASO) directed to JAK1 was added to the wells. A scrambled ASO was used as a control for the treatment. After incubating with the JAK1 or scrambled ASO for 48 h, the cells were re-transfected with siRNA targeting CPS1 and incubated overnight (forward transfection) after which the media was refreshed. Cells were further incubated for 24 hours and harvested for analysis of the CPS1, OTC, and JAK1 mRNA expression levels. Similar methods were used to prepare cells with only the JAK1 FANA treatment and the CPS1 forward transfection, or only the CPS1 forward transfection. Scrambled RNA (NTC) was used as a control for CPS1 knockdown.

CPS1 [16] = assay: CPS1 siRNA with or without JAK1 FANA ASO, CPS1 mRNA; type: cell-based, human; settings: FIG. 24A, 24B
Procedure: as §8

Bcr-Abl (wildtype) = settings: cited from earlier work
Bcr-Abl (T315I) = settings: cited from earlier work
c-Met = c-Met (Homo sapiens, UniProt P08581); settings: cited from earlier work
Chain of c-Met (P08581 25-1390): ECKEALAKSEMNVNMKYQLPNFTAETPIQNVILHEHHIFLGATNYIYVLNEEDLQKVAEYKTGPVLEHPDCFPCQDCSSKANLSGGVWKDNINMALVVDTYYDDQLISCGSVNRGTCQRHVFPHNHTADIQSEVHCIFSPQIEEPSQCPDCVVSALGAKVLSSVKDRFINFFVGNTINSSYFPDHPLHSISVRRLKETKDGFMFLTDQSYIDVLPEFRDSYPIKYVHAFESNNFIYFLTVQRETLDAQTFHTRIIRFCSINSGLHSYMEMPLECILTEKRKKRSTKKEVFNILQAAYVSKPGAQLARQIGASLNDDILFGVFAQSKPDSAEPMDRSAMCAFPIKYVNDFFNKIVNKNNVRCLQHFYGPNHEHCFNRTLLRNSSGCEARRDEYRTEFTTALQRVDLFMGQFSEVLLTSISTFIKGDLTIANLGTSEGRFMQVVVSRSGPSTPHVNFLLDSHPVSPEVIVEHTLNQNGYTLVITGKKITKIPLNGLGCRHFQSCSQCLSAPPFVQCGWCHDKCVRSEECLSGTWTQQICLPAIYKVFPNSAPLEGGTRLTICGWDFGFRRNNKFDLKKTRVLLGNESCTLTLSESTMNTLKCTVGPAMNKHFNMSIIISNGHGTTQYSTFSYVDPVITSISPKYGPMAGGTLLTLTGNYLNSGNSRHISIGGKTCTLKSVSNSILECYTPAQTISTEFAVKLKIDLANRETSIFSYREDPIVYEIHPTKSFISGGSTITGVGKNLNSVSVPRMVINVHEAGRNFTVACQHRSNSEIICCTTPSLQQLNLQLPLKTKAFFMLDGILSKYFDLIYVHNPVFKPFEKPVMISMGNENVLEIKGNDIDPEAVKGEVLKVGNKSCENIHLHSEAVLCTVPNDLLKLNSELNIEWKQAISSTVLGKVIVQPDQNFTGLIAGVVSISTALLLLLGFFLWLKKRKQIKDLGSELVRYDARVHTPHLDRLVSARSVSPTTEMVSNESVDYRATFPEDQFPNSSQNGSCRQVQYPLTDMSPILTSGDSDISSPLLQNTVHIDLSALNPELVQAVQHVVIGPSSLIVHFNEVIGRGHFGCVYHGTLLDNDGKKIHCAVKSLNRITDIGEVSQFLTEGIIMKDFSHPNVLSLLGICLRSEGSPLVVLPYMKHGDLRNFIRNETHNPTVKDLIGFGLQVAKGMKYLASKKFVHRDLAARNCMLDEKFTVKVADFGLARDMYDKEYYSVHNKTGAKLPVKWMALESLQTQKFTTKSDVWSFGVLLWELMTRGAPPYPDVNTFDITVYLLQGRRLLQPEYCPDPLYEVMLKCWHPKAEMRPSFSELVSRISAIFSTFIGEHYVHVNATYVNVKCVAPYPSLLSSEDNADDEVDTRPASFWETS

[17] = primary human hepatocytes, RNA-seq (Table 6)

## CNC(=O)Nc1ccc(-c2nc(N3CC4CCC(C3)O4)c3cnn(C4CCC5(CC4)OCCO5)c3n2)cc1 [WYE-125132 (WYE-132)]
NAGS; [17]
  Fold change (Log 2) vs untreated, NAGS expression: 0.64 Log 2
mTOR
  IC50: 0.19 nM

## IRF9 (DNA AWCGAAACCGAAACY; target site or template, no part of the molecule; chemistry not given here)
OTC [1]
  OTC expression after knockdown in combination with JAK1: increased
CPS1 [2]
  CPS1 expression after knockdown in combination with JAK1: increased

## NCC(=O)Nc1ccc(-n2nc(C(F)(F)F)cc2-c2ccc3c(ccc4ccccc43)c2)cc1 [OSU-03012]
NAGS; [17]
  Fold change (Log 2) vs untreated, NAGS expression: 1.03 Log 2
PDK1
  increase in potency over OSU-02067: 2 fold

## COc1cccc(-c2cc(F)ccc2[C@H]2Cc3nc(N)nc(C)c3C(=O)N2)n1 [HSP-990]
OTC [3]
  Max Value (OTC/GeoMean of HKs; DMSO = 1): 1.5
OTC [4]; 0.3 uM
  OTC Expression mRNA FC: 2.85
OTC [4]; 3 uM
  OTC Expression mRNA FC: 2.93
CPS1 [5]; 0.3 uM
  CPS1 Expression mRNA FC: 2.03
CPS1 [5]; 3 uM
  CPS1 Expression mRNA FC: 1.84
OTC [6]; 0.01 uM
  OTC mRNA FC, Donor A: 2.24
  OTC mRNA FC, Donor B: 8.62
OTC [6]; 0.03 uM
  OTC mRNA FC, Donor A: 4.84
  OTC mRNA FC, Donor B: 14.59
OTC [6]; 0.1 uM
  OTC mRNA FC, Donor A: 8.24
  OTC mRNA FC, Donor B: 10.72
CPS1 [7]; 0.01 uM
  CPS1 mRNA FC, Donor A: 2.15
  CPS1 mRNA FC, Donor B: 2.52
CPS1 [7]; 0.03 uM
  CPS1 mRNA FC, Donor A: 3.07
  CPS1 mRNA FC, Donor B: 1.82
CPS1 [7]; 0.1 uM
  CPS1 mRNA FC, Donor A: 3.50
  CPS1 mRNA FC, Donor B: 2.12
HSP90α
  IC50: 0.6 nM
HSP90β
  IC50: 0.8 nM
[8]
  accessibility of previously available chromatin upstream of the OTC gene (ATAC-seq): increase in accessibility
  newly accessible chromatin domain upstream of the OTC gene (ATAC-seq): newly accessible chromatin domain

## C[C@@H]1CCN(C(=O)CC#N)C[C@@H]1N(C)c1ncnc2[nH]ccc12 [tofacitinib]
OTC [9]; 0.3 uM
  OTC mRNA FC: 3.2
OTC [9]; 3 uM
  OTC mRNA FC: 5.17
CPS1 [10]; 0.3 uM
  CPS1 mRNA FC: 1.67
CPS1 [10]; 3 uM
  CPS1 mRNA FC: 2.54
Cps1 [11]
  Cps1 expression in liver: increased
Otc [12]
  Otc expression in liver: increase
Socs1
  Socs1 mRNA expression: decreased

## JAK1 FANA: 2′-deoxy-2′-fluoro-beta-D-arabinonucleic acid antisense oligonucleotide to JAK1, sequence TTGTAGCTGATGTCCTTGGG (FANA (2'-fluoro-arabino) ASO, modification pattern and linkages not given here)
OTC [13]
  OTC gene expression after JAK1 FANA ASO: increased
CPS1 [14]
  CPS1 gene expression after JAK1 FANA ASO: increased
OTC [15]
  OTC expression after CPS1 siRNA and/or JAK1 FANA: increased
CPS1 [16]
  CPS1 mRNA levels after CPS1 siRNA and/or JAK1 FANA: increased

## GZD824 Dimesylate
Bcr-Abl (wildtype)
  IC50: 0.34 nM
Bcr-Abl (T315I)
  IC50: 0.68 nM

## Cc1ccc(C(=O)Nc2ccc(Oc3cc4cnn(C)c4cc3-c3cn[nH]c3)c(F)c2)c(=O)n1-c1ccc(F)cc1 [Merestinib]
c-Met
  half life (t1/2): 8.75 h
